Experimental data: patent US4027017A, “Method of treating alcoholism” (Chugai Seiyaku Kabushiki Kaisha, priority 1974, dated 1977)
Several values for one entry are separate records, joined by “and”; a condition that tells them apart may be missing. Identical values can stand only once. Entries after “also recorded” stand apart in the source; their conditions may differ.

Assays:
[1] = tested on: Sprague Dawley strain male rats; assay: Behaviour and righting reflex after ethanol, UDPGA.3Na given 30 minutes after ethanol; type: in vivo; settings: 160 mg/kg oral 30 min after ethanol 6 g/kg
Procedure: The Sprague Dawley strain male rats weighing 160±30 g which were fed rat food commercially available as CLEA CE-2 and prevented from eating food for 12 hours just before the experiment was started. Each rat was administered with ethanol as a 50% aqueous solution in a dose of 6 g/kg.body weight. Thirty minutes after the administration, the rat was orally administered with a suspension of trisodium uridine-5'-diphosphate glucuronic acid (UDPGA.3Na) in corn oil in a dose of 160 mg/kg.body weight based on UDPGA.3Na. The behavior of the rat was observed over 24 hours after the last administration.

neutral lipid in liver = assay: Inhibiting action for accumulation of neutral lipid in liver (ethanol-treated rats; Van Handel and Zilver-Smit method); type: in vivo, Sprague Dawley strain male rats; settings: 160 mg/kg oral in corn oil, 30 min before ethanol 6 g/kg oral; liver taken 24 hours after
Procedure: Inhibiting Action for Accumulation of Neutral Lipid in Liver […] Each rat was orally administered with trisodium uridine-5'-diphosphate glucuronic acid (UDPGA-3.Na) as a suspension in corn oil in a dose of 160 mg/kg.body weight. Thirty minutes after the administration, each rat was orally administered with ethanol as a 50% aqueous solution in a dose of 6 g/kg.body weight and, 24 hours after the administration, the liver was taken out and an amount of neutral lipid contained therein was determined by the Van Handel and Zilver-Smit method. For control, a glucose aqueous solution having a caloric content equivalent to the same amount of ethanol was used instead of ethanol.

alcohol level in blood = assay: Measurement of alcohol level in blood (alcoholic dehydrogenase method) and behavior; type: in vivo, Sprague Dawley strain female rats; settings: 30 min before ethanol 6 g/kg
Procedure: Measurement of Alcohol Level in Blood
In this Example, Sprague Dawley strain female rats (weighing 150±20 g) divided into groups of 9-12 members each were used.
After abstention from food overnight each rat was orally administered trisodium uridine-5'-diphosphate glucuronic acid (UDPGA.3Na) in the form of a physiological saline solution in a dose of 160 mg/kg.body weight as an effective ingredient and, 30 minutes after the administration, the rat was administered with ethanol in a dose of 6 g/kg body weight. Four hours and thirty minutes after the administration of ethanol, the rat was etherized, and blood was sampled from its heart to determine alcohol level in the blood by a alcoholic dehydrogenase method. For control, a physiological saline solution was used instead of the UDPGA.3Na solution.

[2] = tested on: Sprague Dawley strain male rats; assay: Behaviour and righting reflex after ethanol, UDPGA.3Na given 30 minutes before ethanol; type: in vivo; settings: 160 mg/kg oral 30 min before ethanol 6 g/kg
Procedure: The Sprague Dawley strain male rats weighing 260±30 g which had been fed rat food commerically available as CLEA CE-2 and prevented from eating food for 12 hours just before the experiment were divided into groups each of 10-13 members each. Each rat was orally administered trisodium uridine-5'-diphosphate glucuronic acid (UDPGA.3Na) in the form of a suspension in corn oil in an amount 160 mg/kg.body weight. Thirty minutes after the administration, ethanol as a 50% aqueous solution was orally administered in a dose of 6 g/kg.body weight and then behavior of the rat was observed over 24 hours.

## O=C(O)[C@H]1O[C@H](OP(=O)(O)OP(=O)(O)OC[C@H]2O[C@@H](n3ccc(=O)[nH]c3=O)[C@H](O)[C@@H]2O)[C@H](O)[C@@H](O)[C@@H]1O [UDPGA.3Na, trisodium uridine-5'-diphosphate glucuronic acid]
[1]; 3 hrs. after alcohol
  Behaviour: Deep Sleep: 2 heads
  Behaviour: Lying Flat: 5 heads
  Behaviour: Normal Walking: 3 heads
  Righting Reflex +: 7 heads
  Righting Reflex -: 3 heads
[1]; 6 hrs. after alcohol
  Behaviour: Deep Sleep: 2 heads
  Behaviour: Lying Flat: 6 heads
  Behaviour: Normal Walking: 2 heads
  Righting Reflex +: 7 heads
  Righting Reflex -: 3 heads
[1]; 9 hrs. after alcohol
  Behaviour: Deep Sleep: 1 heads
  Behaviour: Lying Flat: 3 heads
  Behaviour: Normal Walking: 6 heads
  Righting Reflex +: 8 heads
  Righting Reflex -: 2 heads
[1]; 12 hrs. after alcohol
  Behaviour: Deep Sleep: 0 heads
  Behaviour: Lying Flat: 2 heads
  Behaviour: Normal Walking: 8 heads
  Righting Reflex +: 10 heads
  Righting Reflex -: 0 heads
[1]; 18 hrs. after alcohol
  Behaviour: Deep Sleep: 0 heads
  Behaviour: Lying Flat: 0 heads
  Behaviour: Normal Walking: 10 heads
  Righting Reflex +: 10 heads
  Righting Reflex -: 0 heads
Neutral lipid in liver
  % inhibition (neutral lipid in liver): 59.7%
  Neutral Lipid in Liver: 23.05 ± 10.72 mg/g
Alcohol level in blood; 160 mg/kg oral in physiological saline, blood 4 h 30 min after ethanol, Confidence Limits: 98%
  Ethanol level in Blood, Average: 1.59 ± 0.93 mg/mL
Alcohol level in blood; 160 mg/kg oral in physiological saline, blood 4 h 30 min after ethanol, test animals 1-12 in block order
  Ethanol level in Blood (individual test animals): 2.21 mg/mL and 1.65 mg/mL and 1.82 mg/mL and 1.41 mg/mL and 1.19 mg/mL and 2.15 mg/mL and 0.85 mg/mL and 0.37 mg/mL and 0.63 mg/mL and 1.79 mg/mL and 2.19 mg/mL and 2.82 mg/mL
Alcohol level in blood; 160 mg/kg oral in physiological saline, test animals 1-12 in block order
  Behavior (individual test animals): lying flat; also recorded: normal walking; also recorded: deep sleep
Alcohol level in blood; 160 mg/kg oral, blood 4 h 30 min after ethanol
  alcohol level in blood in comparison with the control: significantly lowered
[2]; 3 hrs. after alcohol
  Behaviour: Deep Sleep: 2 heads
  Behaviour: Lying Flat: 4 heads
  Behaviour: Normal Walking: 4 heads
  Righting Reflex +: 7 heads
  Righting Reflex -: 3 heads
[2]; 6 hrs. after alcohol
  Behaviour: Deep Sleep: 2 heads
  Behaviour: Lying Flat: 6 heads
  Behaviour: Normal Walking: 2 heads
  Righting Reflex +: 7 heads
  Righting Reflex -: 3 heads
[2]; 9 hrs. after alcohol
  Behaviour: Deep Sleep: 1 heads
  Behaviour: Lying Flat: 6 heads
  Behaviour: Normal Walking: 3 heads
  Righting Reflex +: 9 heads
  Righting Reflex -: 1 heads
[2]; 12 hrs. after alcohol
  Behaviour: Deep Sleep: 0 heads
  Behaviour: Lying Flat: 0 heads
  Behaviour: Normal Walking: 10 heads
  Righting Reflex +: 10 heads
  Righting Reflex -: 0 heads
[2]; 18 hrs. after alcohol
  Behaviour: Deep Sleep: 0 heads
  Behaviour: Lying Flat: 0 heads
  Behaviour: Normal Walking: 10 heads
  Righting Reflex +: 10 heads
  Righting Reflex -: 0 heads
